Measured values from ChEMBL document CHEMBL1147019, “5-Piperazinyl pyridine carboxamide bradykinin B1 antagonists” (Bioorg Med Chem Lett, 2006).

What was measured:
B1 bradykinin receptor [1] = target: T1, B1 bradykinin receptor (Homo sapiens, UniProt P46663); assay: Binding affinity to human BK1 receptor
T1 sequence (P46663 whole entry): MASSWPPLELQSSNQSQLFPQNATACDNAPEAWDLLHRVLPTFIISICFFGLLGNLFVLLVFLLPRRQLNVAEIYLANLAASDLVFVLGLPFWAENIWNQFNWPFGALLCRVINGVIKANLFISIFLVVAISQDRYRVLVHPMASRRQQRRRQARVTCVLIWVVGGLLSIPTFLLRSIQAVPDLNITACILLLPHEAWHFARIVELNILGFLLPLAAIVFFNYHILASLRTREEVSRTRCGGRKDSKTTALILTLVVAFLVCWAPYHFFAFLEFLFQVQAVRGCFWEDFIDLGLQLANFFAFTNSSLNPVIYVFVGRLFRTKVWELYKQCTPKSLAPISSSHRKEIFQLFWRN

B1 bradykinin receptor [2] = target: T2, B1 bradykinin receptor (Homo sapiens, UniProt P46663); assay: Binding affinity to human BK1 receptor D291 mutant
B1 bradykinin receptor [3] = target: T2, B1 bradykinin receptor; assay: Binding affinity to human BK1 receptor E273 mutant
B1 bradykinin receptor [4] = target: T2, B1 bradykinin receptor; assay: Binding affinity to human BK1 receptor Q295 mutant
B1 bradykinin receptor [5] = target: T2, B1 bradykinin receptor; assay: Binding affinity to human BK1 receptor N298 mutant

| SMILES | Ki (B1 bradykinin receptor [1]) | also measured |
| --- | --- | --- |
| O=C(C[C@@H]1C(=O)Nc2ccccc2N1S(=O)(=O)c1ccc(Cl)c(Cl)c1)NCCc1ccc(C2=NCCN2)cc1 | 0.034 nM | Ki (B1 bradykinin receptor [2]): 0.049 nM; Ki (B1 bradykinin receptor [3]): 0.0078 nM; Ki (B1 bradykinin receptor [4]): 0.89 nM; Ki (B1 bradykinin receptor [5]): 0.038 nM |
| COC(=O)c1c(F)cccc1-c1ccc(CNc2ccc(C(=O)N3CCN(C4CCCC4)CC3)cn2)c(F)c1 | 1.5 nM |  |
| COC(=O)c1c(F)cccc1-c1ccc(CNc2ccc(C(=O)N3CCN(C4CCC4)CC3)cn2)c(F)c1 | 2.9 nM |  |
| COC(=O)c1c(F)cccc1-c1ccc(CNc2ccc(C(=O)N3CCN(CC(F)F)CC3)cn2)c(F)c1 | 28 nM |  |
| COC(=O)c1c(F)cccc1-c1ccc(CNc2ccc(C(=O)N3CCN(S(C)(=O)=O)CC3)cn2)c(F)c1 | 23 nM |  |
| COC(=O)c1c(F)cccc1-c1ccc(CNc2ccc(C(=O)N3CCN(c4ccccn4)CC3)cn2)c(F)c1 | 65 nM | Ki (B1 bradykinin receptor [2]): 85 nM; Ki (B1 bradykinin receptor [3]): 286 nM; Ki (B1 bradykinin receptor [4]): 10000 nM; Ki (B1 bradykinin receptor [5]): 726 nM |
| COC(=O)c1c(F)cccc1-c1ccc(CNc2ccc(C(=O)N3CCN(CC4CC4)CC3)cn2)c(F)c1 | 0.85 nM |  |
| COC(=O)c1c(F)cccc1-c1ccc(CNc2ccc(C(=O)N3CCNCC3)cn2)c(F)c1 | 5.5 nM |  |
| COC(=O)c1c(F)cccc1-c1ccc(CNc2ccc(C(=O)N3CCOCC3)cn2)c(F)c1 | 80 nM |  |
| C/C=C/CN1CCN(C(=O)c2ccc(NCc3ccc(-c4cccc(F)c4C(=O)OC)cc3F)nc2)CC1 | 3.3 nM |  |
| COC(=O)c1c(F)cccc1-c1ccc(CNc2ccc(C(=O)N3CCN(CCC(C)C)CC3)cn2)c(F)c1 | 9.5 nM |  |
| COC(=O)c1c(F)cccc1-c1ccc(CNc2ccc(C(=O)N3CCN(C)CC3)cn2)c(F)c1 | 4.4 nM |  |
| C=CCCN1CCN(C(=O)c2ccc(NCc3ccc(-c4cccc(F)c4C(=O)OC)cc3F)nc2)CC1 | 4 nM |  |
| COC(=O)c1c(F)cccc1-c1ccc(CNc2cc(C(=O)N3CCOCC3)ccn2)c(F)c1 | 2100 nM |  |
| COC(=O)c1c(F)cccc1-c1ccc(CNc2ccc(C(=O)N3CCN(c4ccccc4)CC3)cn2)c(F)c1 | 62 nM |  |
| COC(=O)c1c(F)cccc1-c1ccc(CNc2ccc(CN3CCCCC3)cn2)c(F)c1 | 9.1 nM |  |
| COC(=O)c1c(Cl)cccc1-c1ccc(CNc2cc(CN3CCOCC3)ccn2)c(F)c1 | > 3000 nM |  |
| COC(=O)c1c(F)cccc1-c1ccc(CNc2cc(C(=O)N3CCCCC3)ccn2)c(F)c1 | > 3000 nM |  |
| COC(=O)c1c(F)cccc1-c1ccc(CNc2nccc(C)c2NC(=O)CC#N)c(F)c1 | 0.71 nM |  |
| COC(=O)c1c(F)cccc1-c1ccc(CNc2ccccn2)c(F)c1 | 815 nM |  |
| CCC(C)N1CCN(C(=O)c2ccc(NCc3ccc(-c4cccc(F)c4C(=O)OC)cc3F)nc2)CC1 (stereo not given) | 1.5 nM |  |
| COC(=O)c1c(Cl)cccc1-c1ccc(CNc2cc(CN3CCCCC3)ccn2)c(F)c1 | 611 nM |  |
| COC(=O)c1c(F)cccc1-c1ccc(CNc2ccc(C(=O)N3CCN(CC4CCCC4)CC3)cn2)c(F)c1 | 1.7 nM |  |
| COC(=O)c1c(F)cccc1-c1ccc(CNc2ccc(C(=O)N3CCN(C(=O)C(C)(C)C)CC3)cn2)c(F)c1 | 213 nM |  |
| COC(=O)c1c(F)cccc1-c1ccc(CNc2ccc(C(=O)N3CCN(CC(C)C)CC3)cn2)c(F)c1 | 1.5 nM |  |
| COC(=O)c1c(F)cccc1-c1ccc(CNc2ccc(C(=O)N3CCN(CCF)CC3)cn2)c(F)c1 | 5.2 nM |  |
| COC(=O)c1c(F)cccc1-c1ccc(CNc2ccc(C(=O)N3CCN(CC(F)(F)F)CC3)cn2)c(F)c1 | 52 nM |  |
| COC(=O)c1c(F)cccc1-c1ccc(CNc2ccc(C(=O)N3CCN(C(=O)OC)CC3)cn2)c(F)c1 | 34 nM |  |

More lines, in order of falling Ki (B1 bradykinin receptor [1]), values ahead:

| Ki (B1 bradykinin receptor [1]) | SMILES | also measured |
| --- | --- | --- |
| 893 nM | COC(=O)c1c(F)cccc1-c1ccc(CNc2cc(C(=O)N3CCN(C)CC3)ccn2)c(F)c1 |  |
| 184 nM | COC(=O)c1c(F)cccc1-c1ccc(CNc2ccc(CN3CCOCC3)cn2)c(F)c1 |  |
| 70 nM | COC(=O)c1c(F)cccc1-c1ccc(CNc2ccc(C(=O)N3CCCCC3)cn2)c(F)c1 |  |
| 26 nM | COC(=O)c1c(F)cccc1-c1ccc(CNc2ccc(C(=O)N3CCN(Cc4ccccc4)CC3)cn2)c(F)c1 |  |
| 25 nM | C#CCN1CCN(C(=O)c2ccc(NCc3ccc(-c4cccc(F)c4C(=O)OC)cc3F)nc2)CC1 |  |
| 17 nM | COC(=O)c1c(F)cccc1-c1ccc(CNc2ccc(C(=O)N3CCN(C(C)=O)CC3)cn2)c(F)c1 |  |
| 8 nM | C=CCN1CCN(C(=O)c2ccc(NCc3ccc(-c4cccc(F)c4C(=O)OC)cc3F)nc2)CC1 |  |
| 3.5 nM | COC(=O)c1c(F)cccc1-c1ccc(CNc2ccc(C(=O)N3CCN(c4cccnc4)CC3)cn2)c(F)c1 |  |
| 3.4 nM | COC(=O)c1c(F)cccc1-c1ccc(CNc2ccc(C(=O)N3CCN(CC4CCC4)CC3)cn2)c(F)c1 |  |
| 3.4 nM | CCN1CCN(C(=O)c2ccc(NCc3ccc(-c4cccc(F)c4C(=O)OC)cc3F)nc2)CC1 |  |
| 2.8 nM | COC(=O)c1c(F)cccc1-c1ccc(CNc2ccc(C(=O)N3CCN(C4CCCCC4)CC3)cn2)c(F)c1 |  |
| 2.2 nM | COC(=O)c1c(F)cccc1-c1ccc(CNc2ccc(C(=O)N3CCN(C(C)C)CC3)cn2)c(F)c1 |  |
| 1.7 nM | CCCN1CCN(C(=O)c2ccc(NCc3ccc(-c4cccc(F)c4C(=O)OC)cc3F)nc2)CC1 |  |
| 1.4 nM | CCCCN1CCN(C(=O)c2ccc(NCc3ccc(-c4cccc(F)c4C(=O)OC)cc3F)nc2)CC1 |  |
| 0.045 nM | COC(=O)c1c(F)cccc1-c1ccc(CNc2ccc(C(=O)N3CCN(c4ccncc4)CC3)cn2)c(F)c1 | Ki (B1 bradykinin receptor [2]): 0.08 nM; Ki (B1 bradykinin receptor [3]): 0.05 nM; Ki (B1 bradykinin receptor [4]): 5.12 nM; Ki (B1 bradykinin receptor [5]): 0.83 nM |
